Results: patent publication US11905259B1, “2-(benzo[d]oxazol-2-yl)-N′-(4-(dimethylamino)benzoyloxy)acetimidamide as an antimicrobial compound” (KING FAISAL UNIVERSITY, priority 2023, dated 2024)

Tests used:
[1] = test system: Chrysosporium keratinophilum; assay: agar plate disc-diffusion, antifungal activity; assay type: cell-based
Procedure: (§1) The agar plate disc-diffusion method was applied. […] The discs were then placed onto the surface of agar plates (nutrient agar for bacteria and Sabouraud's dextrose agar for fungi) seeded with the test organism. Each plate contained 15 mL of the agar medium, previously seeded with 0.2 mL of the broth culture of each organism pregrown for 18 hours. The plates were incubated at 37° C. for 48 hours, and 72 hours for fungi. The inhibition zones was measured in mm. Discs impregnated with DMSO were used as a control, and its inhibition zone was subtracted from the tested compound actual inhibition zone.

Bacillus cereus = assay: agar plate disc-diffusion, antibacterial activity; assay type: cell-based
Procedure: as §1

Pseudomonas aeruginosa = assay: agar plate disc-diffusion, antibacterial activity; assay type: cell-based
Procedure: as §1

Staphylococcus aureus = assay: agar plate disc-diffusion, antibacterial activity; assay type: cell-based
Procedure: as §1

Escherichia coli = assay: agar plate disc-diffusion, antibacterial activity; assay type: cell-based
Procedure: as §1

Aspergillus flavus = assay: agar plate disc-diffusion, antifungal activity; assay type: cell-based
Procedure: (§2) The agar plate disc-diffusion method was applied. Sterilized filter papers (6 mm in diameter) were wetted with 10 μL of a solution of 2-(benzo[d]oxazol-2-yl)-N′-(4-(dimethylamino)benzoyloxy)acetimidamide (3) to be tested, containing 10 mg/mL in DMSO, and the discs were allowed to air dry. The discs were then placed onto the surface of agar plates (nutrient agar for bacteria and Sabouraud's dextrose agar for fungi) seeded with the test organism. Each plate contained 15 mL of the agar medium, previously seeded with 0.2 mL of the broth culture of each organism pregrown for 18 hours. The plates were incubated at 37° C. for 48 hours, and 72 hours for fungi. The inhibition zones was measured in mm. Discs impregnated with DMSO were used as a control, and its inhibition zone was subtracted from the tested compound actual inhibition zone.

different microbes = assay: antimicrobial screening, overall statement; assay type: cell-based; conditions: against different microbes (bacteria and fungi screened)
Procedure: as §2

[2] = A = concentration of comp. = 10,000 uL
[3] = B = concentration of comp. = 30,000 uL
[4] = C = concentration of comp. = 50,000 uL

What does the source list for O=C(O)c1cn(C2CC2)c2cc(N3CCNCC3)c(F)cc2c1=O [Cip., ciprofloxacin, reference compound]?
inhibition zone [1, 2]: 30 mm; inhibition zone [1, 3]: 33 mm; inhibition zone [1, 4]: 55 mm; inhibition zone (Bacillus cereus; [2]): 29 mm; inhibition zone (Bacillus cereus; [3]): 31 mm; inhibition zone (Bacillus cereus; [4]): 42 mm; inhibition zone (Pseudomonas aeruginosa; [2]): 29 mm; inhibition zone (Pseudomonas aeruginosa; [3]): 30 mm; inhibition zone (Pseudomonas aeruginosa; C =): 53 mm; inhibition zone (Staphylococcus aureus; [2]): 43 mm; inhibition zone (Staphylococcus aureus; [3]): 44 mm; inhibition zone (Staphylococcus aureus; C = concentration of comp.): 53 mm; inhibition zone (Escherichia coli; [2]): 30 mm; inhibition zone (Escherichia coli; [3]): 39 mm; inhibition zone (Escherichia coli; [4]): 60 mm; inhibition zone (Aspergillus flavus; [2]): 28 mm; inhibition zone (Aspergillus flavus; [3]): 31 mm; inhibition zone (Aspergillus flavus; [4]): 43 mm

For CN(C)c1ccc(C(=O)O/N=C(\N)Cc2nc3ccccc3o2)cc1 [Compound 3, 2-(benzo[d]oxazol-2-yl)-N′-(4-(dimethylamino)benzoyloxy)acetimidamide], which inhibition zone [1, 2] is on record?
The inhibition zone was 25 mm.

And the inhibition zone [1, 3]?
Its inhibition zone is 29 mm.

And the inhibition zone [1, 4]?
The inhibition zone was 46 mm.

What about the melting point of the same compound?
Its melting point is 165 to 166 °C.

And the inhibition zone (Bacillus cereus; [2])?
Its inhibition zone is 26 mm.

And the inhibition zone (Bacillus cereus; [3])?
Its inhibition zone is 28 mm.

What about the inhibition zone (Bacillus cereus; [4]) of the same compound?
The inhibition zone was 41 mm.

What about the inhibition zone (Pseudomonas aeruginosa; [2]) of the same compound?
Its inhibition zone is 25 mm.

And the inhibition zone (Pseudomonas aeruginosa; [3])?
The inhibition zone was 28 mm.

And the inhibition zone (Pseudomonas aeruginosa; C =)?
The inhibition zone was 39 mm.

And the inhibition zone (Staphylococcus aureus; [2])?
The inhibition zone was 17 mm.

And the inhibition zone (Staphylococcus aureus; [3])?
The inhibition zone was 22 mm.

And the inhibition zone (Staphylococcus aureus; C = concentration of comp.)?
Its inhibition zone is 34 mm.

And the inhibition zone (Escherichia coli; [2])?
Its inhibition zone is 27 mm.

And the inhibition zone (Escherichia coli; [3])?
The inhibition zone was 34 mm.

And the inhibition zone (Escherichia coli; [4])?
Its inhibition zone is 49 mm.

And the antimicrobial activities (different microbes)?
Its antimicrobial activities is “excellent”.

And the inhibition zone (Aspergillus flavus; [2])?
The inhibition zone was 21 mm.

And the inhibition zone (Aspergillus flavus; [3])?
The inhibition zone was 25 mm.

What about the inhibition zone (Aspergillus flavus; [4]) of the same compound?
The inhibition zone was 37 mm.
